# Where “and” joins values, the source holds several entries; their conditions need not be identical. Equal values may be shown once.
# Columns and labels:
# [1] = UV-vis absorption and emission measurements in aqueous buffer; format: physicochemical
# Method: UV-vis absorption and emission measurements. FCP-1 stock solution in DMSO (5 mM) was prepared, aliquoted and stored at […]. For each spectroscopic measurement, a fresh aliquot was diluted to 500 μM by DMSO and further diluted with PBS containing 2 mM GSH/PEG-400 mixture (3:2, v/v) to prepare the sensing solution with 5 μM of FCP-1. The sensing solution was pre-incubated in a water bath at 37° C., and then [Cu(CH3CN)](PF6) in MeCN or other metal ions in H2O was added. The solution mixture was kept at 37° C. and taken out for UV-vis absorption or emission spectroscopic measurements in quartz cuvette at predetermined time intervals. Emission spectra were corrected using coumarin 153 as secondary emission standard (4). Photoluminescence quantum yield (PLQY) was determined using fluorescein in 0.1 M NaOH solution (0.95; λex=496 nm). FRET efficiency from the fluorescein moiety to rhodamine moiety of FCP-1 was estimated by [1−(PLQY of FCP-1/PLQY of FL-TPA)].
# FCP-1 in PBS buffer containing glutathione (2 mM) and PEG-400 (40%, v/v) was evaluated. […] The first two absorption maxima corresponded to the absorption of the fluorescein moiety, as similar absorption maxima at 460 and 489 nm were found in the absorption spectra of FL-TPA (FIG. 4), whereas the lowest energy absorption at 552 nm originated from the rhodamine moiety (FIG. 4). […] Together with the significant contribution of the lower-energy fluorescence from the excitation at 450-500 nm, which is in the region of FL-TPA absorption (FIG. 6), the data support the occurrence of FRET from the fluorescein donor to the rhodamine acceptor. Using FL-TPA as a reference FRET donor compound (FIG. 7) with assumption that quenching of donor fluorescence originated only from the FRET process, the FRET efficiency in the FCP-1 cassette is estimated to be 84%.
# [2] = system: labile Cu(I) pools in HEK 293T cells; assay: Ratiometric confocal fluorescence imaging of labile Cu(I) in HEK 293T cells; format: cell-based, Human; conditions: CuCl2 25 μM, FL-TPA 5 μM, λex 488 nm (FIG. 15)
# Method: (A) Confocal fluorescence microscopy images of HEK 293T cells pretreated with solvent vehicle control or varying concentrations of CuCl2 in complete medium for 18 h. The cells were then washed with PBS, incubated with FCP-1 (5 μM) in DPBS for 45 min and then imaged. (B) Average cellular ratiometric emission ratios, represented by Fgreen/Forange, as determined from imaging experiments in (A) performed in triplicate. (C) Confocal fluorescence microscopy images of HEK 293T cells pretreated with solvent vehicle control or BCS (100 μM) in complete medium for 18 h. The cells were then washed with PBS, incubated with FCP-1 (5 μM) in DPBS for 45 min and then imaged. (D) Average cellular ratiometric emission ratios of FCP-1, Fgreen/Forange, as determined from experiments in (C) performed in triplicate. […] (E) ICP-MS measurement to determine total cellular ^63Cu levels in HEK293T cells under copper supplementation and depletion relative to the control (with normalization of different cell numbers by total cellular ^31P level). Error bars denote standard derivation (SD; n=3). *p<0.05, **p<0.01, ***p<0.001, ****p<0.0001 and *****p<0.00001.
# Cell culture. Following cell cultures were grown: Human embryonic kidney (HEK 293T) cells were maintained in Dulbecco's Modified Eagle Medium (DMEM) supplemented with 10 vol % fetal bovine serum (FBS), 1 vol % GlutaMax (Gibco) and 1 vol % non-essential amino acids (NEAA, Gibco). Ctrl1^+/+ and Ctr1^−/− MEF cells were maintained in DMEM with 10 vol % FBS, 1 vol % non-essential amino acids, 1 vol % sodium pyruvate and 0.1 vol % 2-mercaptoethanol or DMEM supplemented with 10 vol % FBS and 1× Penicillin-Streptomycin. Human cervical epithelial carcinoma (HeLa) was maintained in DMEM medium supplemented with 1 vol % GlutaMAX and 10 vol % FBS. […]
# Confocal fluorescence microscopy imaging. For confocal fluorescence imaging experiments of HEK293T, MEF Ctr1^+/+ and Ctr1^−/− and HeLa cells, the cells were plated on 8-well Lab Tek borosilicate chambered coverglass slides (Nunc), and allowed to grow to ca. 60% confluency before performing the cell imaging experiments. […] For quantification, a threshold value was set as background and the average intensity of the whole image was measured by ImageJ. […]
# Given the metal and oxidation state-selective and sensitive response of FCP-1 to Cu(I), this probe was examined for ratiometric fluorescence imaging of labile Cu(I) pools in living cells. […] The observed increases and decreases in labile Cu(I) levels upon copper supplementation (CuCl2) and copper depletion (BCS) treatments, respectively, as measured by FCP-1 imaging were supported by complementary ICP-MS measurements of total copper levels showing expected increases and decreases in the total copper pool (FIG. 9, panel C).
# [3] = system: labile Cu(I) in Ctr1^+/+ MEFs; assay: Confocal fluorescence imaging of labile Cu(I) in Ctr1+/+ MEFs; format: cell-based, mouse; conditions: FL-TPA 5 μM, 45 min, λex 488 nm
# Method: (A) Confocal fluorescence microscopy images of Ctr1^+/+ MEFs and Ctr1^−/− MEFs treated with solvent control, CuCl2 (100 or 300 μM) or BCS (500 μM) in complete medium for 8 h, washed with complete medium and PBS, incubated with FCP-1 (5 μM) in DPBS for 45 min, and then imaged with λex=458 nm. (B) Average cellular ratiometric emission ratios of FCP-1, Fgreen/Forange, as determined from experiments performed in triplicate. (C) Total cellular ^63Cu levels were determined by ICP-MS experiments (with normalization of different cell numbers by total cellular ^31P level). (D) Confocal fluorescence microscopy images of Ctr1^+/+ MEFs and Ctr1^−/− MEFs incubated with FL-TPA (5 μM) in DPBS for 45 min. The cells were then imaged with λex=488 nm. (E) Average cellular fluorescence intensity of FL-TPA, FFL-TPA, determined from experiments performed in triplicate with λex=488 nm. Error bars denote SD (n=3). *p<0.05, **p<0.01 and ***p<0.001.
# Cell culture. Following cell cultures were grown: Human embryonic kidney (HEK 293T) cells were maintained in Dulbecco's Modified Eagle Medium (DMEM) supplemented with 10 vol % fetal bovine serum (FBS), 1 vol % GlutaMax (Gibco) and 1 vol % non-essential amino acids (NEAA, Gibco). Ctrl1^+/+ and Ctr1^−/− MEF cells were maintained in DMEM with 10 vol % FBS, 1 vol % non-essential amino acids, 1 vol % sodium pyruvate and 0.1 vol % 2-mercaptoethanol or DMEM supplemented with 10 vol % FBS and 1× Penicillin-Streptomycin. Human cervical epithelial carcinoma (HeLa) was maintained in DMEM medium supplemented with 1 vol % GlutaMAX and 10 vol % FBS. All cells were incubated in 5% CO2 humidified air and subcultured at 80% confluence.
# Confocal fluorescence microscopy imaging. For confocal fluorescence imaging experiments of HEK293T, MEF Ctr1^+/+ and Ctr1^−/− and HeLa cells, the cells were plated on 8-well Lab Tek borosilicate chambered coverglass slides (Nunc), and allowed to grow to ca. 60% confluency before performing the cell imaging experiments. The confocal imaging was performed with a Zeiss laser scanning microscope 710 with 20× or 63× oil-immersion objective lens using Zen 2009 software (Carl Zeiss). FCP-1 was excited with 458 nm with an Ar laser, and the emissions were collected using a META detector between 465 and 541 nm (Fgreen), and between 559 and 710 nm (Forange). DRAQ-5 was excited with a 633 nm He Ne laser, and its emission was collected using a META detector between 661 and 759 nm. Image analysis was performed using ImageJ, with ratiometric images generated by the Ratio Plus plugin of ImageJ. For quantification, a threshold value was set as background and the average intensity of the whole image was measured by ImageJ. All experiments were performed in triplicate, and statistical analyses were performed with a two-tailed Student's t-test (MS excel).
# Having established that FCP-1 is sensitive to endogenous pools of labile Cu(I) under basal conditions and can respond to changes in labile Cu(I) pools upon pharmacological copper supplementation and/or depletion, the application of FCP-1 to visualize alterations in endogenous labile Cu(I) pools through genetic manipulation was explored. To this end, comparative FCP-1 imaging was performed in mouse embryonic fibroblast cells that are either Cu-replete (Ctr1^+/+ MEFs) or Cu-deficient (Ctr1^−/− MEFs) through knockout of the high-affinity copper transporter CTR1 (64-66).
# Complementary ICP-MS measurements confirm that total copper levels in Ctr1^−/− MEFs are lower than Ctr1^+/+ MEFs (FIG. 12C). […]
Molecule,"absorption at 458 nm ([1]; 5 μM in PBS, 2 mM GSH, 40 vol % PEG-400)","absorption maxima ([1]; PBS buffer containing glutathione (2 mM) and PEG-400 (40%, v/v))",detection of changes in labile copper with exogenous copper addition [2],ability to distinguish basal labile Cu(I) levels in Ctr1+/+ and Ctr1−/− MEFs [3]
"N-[9-(2-carboxyphenyl)-6-(1-piperazinyl)-3H-xanthen-3-ylidene]-N-ethyl-ethanaminium [Pz-rhodamine, reference compound]",weak absorption,,,
COC(=O)c1ccccc1-c1c2ccc(=O)cc-2oc2cc(OCc3cccc(CN(Cc4ccccn4)Cc4ccccn4)n3)ccc12 [FL-TPA],,460 nm and 489 nm,able to detect changes in labile copper,unable to distinguish differences

# Source: patent publication US12241902B2, “Probes for detection of copper” (The Regents of the University of California, priority 2019, dated 2025)
